# Assay results reported in ChEMBL document CHEMBL1201862, “PubChem BioAssay data set” (2004).
#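 Method: 48-hour compound exposure of cells in 96-well plates, five concentrations, linear interpolation of endpoints. GI50: concentration for 50% inhibition of growth.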 The source made the active and inactive calls. Rule as the data show it: active = GI50 up to about 1.1 µM and inactive = higher.
# How the values were obtained:
# Experiment in all cases: DTP human tumour cell line panel, 48 h
# 786-0 = test system: 786-0
# A498 = test system: A498
# BT-549 = test system: BT-549
# CCRF-CEM = test system: CCRF-CEM
# DU-145 = test system: DU-145
# HL-60 = test system: HL-60
# HOP-92 = test system: HOP-92
# HT-29 = test system: HT-29
# Hs-578T = test system: Hs-578T
# IGROV-1 = test system: IGROV-1
# MDA-MB-231 = test system: MDA-MB-231
# MOLT-4 = test system: MOLT-4
# NCI-H460 = test system: NCI-H460
# NCI/ADR-RES = test system: NCI/ADR-RES
# SF-295 = test system: SF-295
# SK-MEL-2 = test system: SK-MEL-2
# SK-OV-3 = test system: SK-OV-3
# SR = test system: SR
# SW-620 = test system: SW-620
# UACC-62 = test system: UACC-62
SMILES,GI50 (786-0),GI50 (A498),GI50 (BT-549),GI50 (CCRF-CEM),GI50 (DU-145),GI50 (HL-60),GI50 (HOP-92),GI50 (HT-29),GI50 (Hs-578T),GI50 (IGROV-1),GI50 (MDA-MB-231),GI50 (MOLT-4),GI50 (NCI-H460),GI50 (NCI/ADR-RES),GI50 (SF-295),GI50 (SK-MEL-2),GI50 (SK-OV-3),GI50 (SR),GI50 (SW-620),GI50 (UACC-62)
CC1NC(C(=O)O)Cc2cc(O)c(O)cc21 (configuration not stated),> 100 µM (inactive),> 100 µM (inactive),> 100 µM (inactive),91.2 µM (inactive),> 100 µM (inactive),> 100 µM (inactive),> 100 µM (inactive),> 100 µM (inactive),> 100 µM (inactive),> 100 µM (inactive),> 100 µM (inactive),> 100 µM (inactive),> 100 µM (inactive),> 100 µM (inactive),> 100 µM (inactive),> 100 µM (inactive),> 100 µM (inactive),> 100 µM (inactive),> 100 µM (inactive),> 100 µM (inactive)
c1ccc2c(c1)c1c3n2-c2cc(on2)C3CCC1 (configuration not stated),> 100 µM (inactive),> 100 µM (inactive),> 100 µM (inactive),82.6 µM (inactive),> 100 µM (inactive),> 100 µM (inactive),> 100 µM (inactive),> 100 µM (inactive),> 100 µM (inactive),> 100 µM (inactive),> 100 µM (inactive),70.1 µM (inactive),> 100 µM (inactive),> 100 µM (inactive),> 100 µM (inactive),> 100 µM (inactive),> 100 µM (inactive),> 100 µM (inactive),> 100 µM (inactive),> 100 µM (inactive)
Nc1nc(Nc2ccccc2)sc1C(=O)c1cccs1,11.5 µM (inactive),14.6 µM (inactive),15.2 µM (inactive),2.81 µM (inactive),8.97 µM (inactive),3.57 µM (inactive),30.3 µM (inactive),5.32 µM (inactive),15.8 µM (inactive),11.7 µM (inactive),28.7 µM (inactive),6.75 µM (inactive),10.4 µM (inactive),21.2 µM (inactive),21.8 µM (inactive),12.7 µM (inactive),29.4 µM (inactive),1.74 µM (inactive),11.6 µM (inactive),15.7 µM (inactive)
CC1(C)CCCC2OC2CCC(C)(C)C1=O (configuration not stated),> 100 µM (inactive),> 100 µM (inactive),> 100 µM (inactive),> 100 µM (inactive),> 100 µM (inactive),> 100 µM (inactive),> 100 µM (inactive),> 100 µM (inactive),> 100 µM (inactive),> 100 µM (inactive),> 100 µM (inactive),> 100 µM (inactive),> 100 µM (inactive),> 100 µM (inactive),> 100 µM (inactive),> 100 µM (inactive),> 100 µM (inactive),> 100 µM (inactive),> 100 µM (inactive),> 100 µM (inactive)
C=C(CCC/C(C)=C/C=C/[C@]1(C)CCCc2ccoc21)CC(=O)O,> 100 µM (inactive),> 100 µM (inactive),79.1 µM (inactive),50 µM (inactive),42.5 µM (inactive),43.6 µM (inactive),> 100 µM (inactive),> 100 µM (inactive),50.5 µM (inactive),> 100 µM (inactive),> 100 µM (inactive),38.7 µM (inactive),> 100 µM (inactive),> 100 µM (inactive),> 100 µM (inactive),> 100 µM (inactive),> 100 µM (inactive),39.3 µM (inactive),> 100 µM (inactive),75.3 µM (inactive)
c1ccc(CC(Nc2cccnc2)c2ccccc2)cc1 (configuration not stated),21.3 µM (inactive),34 µM (inactive),25.2 µM (inactive),16.4 µM (inactive),29.6 µM (inactive),23.9 µM (inactive),17.4 µM (inactive),16.4 µM (inactive),37.2 µM (inactive),31 µM (inactive),20 µM (inactive),16.4 µM (inactive),23 µM (inactive),21.9 µM (inactive),18.5 µM (inactive),18.4 µM (inactive),31.7 µM (inactive),23.9 µM (inactive),33 µM (inactive),16.6 µM (inactive)
COc1ccc(C2SC(=N)Nc3c2c(C)nn3C(=O)c2ccncc2)cc1 (configuration not stated),> 100 µM (inactive),98.4 µM (inactive),> 100 µM (inactive),29.4 µM (inactive),> 100 µM (inactive),87.1 µM (inactive),> 100 µM (inactive),> 100 µM (inactive),> 100 µM (inactive),89.5 µM (inactive),> 100 µM (inactive),44.5 µM (inactive),42.3 µM (inactive),> 100 µM (inactive),> 100 µM (inactive),> 100 µM (inactive),> 100 µM (inactive),21.2 µM (inactive),> 100 µM (inactive),> 100 µM (inactive)
Oc1ccc(O)c(CNc2ccc(C(O)C(F)(F)F)cc2)c1 (configuration not stated),13 µM (inactive),41.4 µM (inactive),12.1 µM (inactive),3.21 µM (inactive),14.5 µM (inactive),3.42 µM (inactive),13.6 µM (inactive),32.4 µM (inactive),41.2 µM (inactive),12.9 µM (inactive),15.6 µM (inactive),5.01 µM (inactive),21.5 µM (inactive),8.43 µM (inactive),16.4 µM (inactive),20.1 µM (inactive),44.3 µM (inactive),6.3 µM (inactive),32.2 µM (inactive),15.7 µM (inactive)
COc1cccc2c1C(CO)N1C(C#N)C3CC(C(=O)O)C(C1C2)N3C (configuration not stated),1.3 µM (inactive),2.77 µM (inactive),0.213 µM (active),1.1 µM (active),0.481 µM (active),1.52 µM (inactive),1.99 µM (inactive),1.64 µM (inactive),0.238 µM (active),,0.15 µM (active),1.48 µM (inactive),5.19 µM (inactive),0.367 µM (active),4.7 µM (inactive),1.21 µM (inactive),3.6 µM (inactive),2.08 µM (inactive),2.71 µM (inactive),1.16 µM (inactive)
CC1CCC2(C(=O)O)CCC3(C)C(=CCC4C5(C)CC(O)C(O)C(C)(CO)C5C(O)CC43C)C2C1C (configuration not stated),3.29 µM (inactive),24.3 µM (inactive),31.7 µM (inactive),19 µM (inactive),> 100 µM (inactive),20.2 µM (inactive),20.8 µM (inactive),> 88.5 µM (inactive),19.4 µM (inactive),19.2 µM (inactive),39.9 µM (inactive),58.2 µM (inactive),> 100 µM (inactive),> 100 µM (inactive),74.5 µM (inactive),19.4 µM (inactive),> 100 µM (inactive),22.8 µM (inactive),> 100 µM (inactive),21.3 µM (inactive)
c1ccc2sc(SSSc3nc4ccccc4s3)nc2c1,44.4 µM (inactive),> 100 µM (inactive),> 100 µM (inactive),28.4 µM (inactive),> 100 µM (inactive),49.2 µM (inactive),> 100 µM (inactive),35.7 µM (inactive),> 100 µM (inactive),> 100 µM (inactive),> 100 µM (inactive),77.3 µM (inactive),44.7 µM (inactive),> 100 µM (inactive),> 100 µM (inactive),> 100 µM (inactive),> 100 µM (inactive),53.8 µM (inactive),> 100 µM (inactive),> 100 µM (inactive)
CCOC(=O)C1(Cc2ccccc2)CCN(C(=O)c2ccccc2)C2C1C2(Cl)Cl (configuration not stated),20.1 µM (inactive),18.8 µM (inactive),25.2 µM (inactive),20 µM (inactive),33 µM (inactive),12.2 µM (inactive),26.6 µM (inactive),16.6 µM (inactive),26.7 µM (inactive),31.2 µM (inactive),17.1 µM (inactive),20 µM (inactive),16.8 µM (inactive),21.3 µM (inactive),23.3 µM (inactive),15.6 µM (inactive),28.6 µM (inactive),23.6 µM (inactive),25.7 µM (inactive),12 µM (inactive)
OC1CCC(C2C3CCCCC3C3CCCCC3C2C2CCC(O)CC2)CC1 (configuration not stated),4.16 µM (inactive),15.8 µM (inactive),3.89 µM (inactive),,5.37 µM (inactive),4.13 µM (inactive),8.05 µM (inactive),2.05 µM (inactive),7.28 µM (inactive),3.7 µM (inactive),3.27 µM (inactive),4.39 µM (inactive),2.96 µM (inactive),4.58 µM (inactive),4.28 µM (inactive),5.56 µM (inactive),5.19 µM (inactive),4.16 µM (inactive),3.99 µM (inactive),7.16 µM (inactive)
COc1ccc2c3c(c(=O)n(C)c2c1OC)C=CC(C)(C)O3,43.1 µM (inactive),17.9 µM (inactive),22.1 µM (inactive),23.2 µM (inactive),43.7 µM (inactive),11.2 µM (inactive),18 µM (inactive),24 µM (inactive),23.5 µM (inactive),36.1 µM (inactive),22 µM (inactive),24.4 µM (inactive),,18 µM (inactive),36.7 µM (inactive),42.6 µM (inactive),32.1 µM (inactive),3.46 µM (inactive),28.4 µM (inactive),37.8 µM (inactive)
